From PubChem BioAssay (NCI)
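Compound exposure: 48 hours, 5 concentrations, 96-well plates. Here, GI50 denotes the concentration required for 50% inhibition of growth. TGI: total growth inhibition.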

What was measured:
Test in all cases: growth of human tumour cells (NCI), 48 h
[1] = test system: SF-295 CNS
[2] = test system: HCT-15 colon
[3] = test system: OVCAR-5 ovarian
[4] = test system: NCI-H460 lung
[5] = test system: T-47D breast
[6] = test system: MOLT-4 leukemia
[7] = test system: CAKI-1 renal
[8] = test system: NCI-H23 lung
[9] = test system: KM12 colon
[10] = test system: NCI-H226 lung

| Structure (SMILES) | TGI [1] | TGI [2] | TGI [3] | TGI [4] | TGI [5] | TGI [6] | TGI [7] | TGI [8] | TGI [9] | TGI [10] | GI50 [1] | GI50 [2] | GI50 [3] | GI50 [4] | GI50 [10] | GI50 [6] | GI50 [7] | GI50 [8] | GI50 [9] |
| --- | --- | --- | --- | --- | --- | --- | --- | --- | --- | --- | --- | --- | --- | --- | --- | --- | --- | --- | --- |
| CC(=O)O[C@H]1C(=O)[C@@]2(C)[C@H]([C@H](OC(=O)c3ccoc3)[C@]3(O)C[C@H](OC(=O)[C@H](O)[C@@H](NC(=O)c4ccccc4)c4ccccc4)C(C)=C1C3(C)C)[C@]1(OC(C)=O)CO[C@@H]1C[C@@H]2O | > 12.5 µM | > 12.5 µM | > 12.5 µM | > 3.73 µM | > 12.5 µM | > 11.6 µM | > 12.5 µM | > 12.5 µM | > 12.5 µM |  |  |  |  |  |  |  |  |  |  |
| COC(=O)CC1N=C(NC#N)N(CCc2c[nH]c3ccccc23)C1=O (stereo not given) | > 100 µM | > 100 µM | > 100 µM | > 100 µM |  | > 100 µM |  | > 100 µM | > 100 µM | > 100 µM |  |  |  |  |  |  |  |  |  |
| C(/C=C/Nc1ccc(Oc2ccccc2)cc1)=Nc1ccc(Oc2ccccc2)cc1 | 29.4 µM | 33.6 µM | 50.2 µM | 30.6 µM |  |  | 32.7 µM | 48.7 µM | 30.3 µM | > 100 µM |  |  |  |  |  |  |  |  |  |
| Nc1nc(-c2ccccc2)cc(-c2ccc(OCc3ccccc3)cc2O)n1 | > 100 µM | > 100 µM | > 100 µM | > 100 µM |  | > 100 µM | > 100 µM | > 100 µM | > 100 µM | > 100 µM |  |  |  |  |  |  |  |  |  |
| CC1=CCC(O)C=CC(C)C(O)C(C)C=C(C)C(=O)c2c(O)c(C)cc3c2C(=O)C(N)=C(NC(=O)/C=C\C=C/C=CC(C)C(O)CC1=O)C3=O (stereo not given) | > 100 µM | > 100 µM | > 100 µM |  |  | > 100 µM | > 100 µM | > 100 µM | > 100 µM | > 100 µM |  |  |  |  |  |  |  |  |  |
| CN(C)CC1CCCC(CN(C)C)C1OC(=O)c1ccccc1 (stereo not given) | > 100 µM | > 100 µM | > 100 µM | > 100 µM |  | > 100 µM | > 100 µM | > 100 µM | > 100 µM | > 100 µM |  |  |  |  |  |  |  |  |  |
| CCN(CC)C1CC(O[C@H]2C[C@](O)(C(=O)CO)Cc3c(O)c4c(c(O)c32)C(=O)c2c(OC)cccc2C4=O)OC(C)C1O (stereo not given in full) | 0.468 µM | 3.54 µM | 0.561 µM | 0.146 µM |  | 1.17 µM |  | 0.154 µM | 0.457 µM | 0.044 µM |  |  |  |  |  |  |  |  |  |
| Cc1ccc2c(c1)CC1(Cc3ccccc3C1=O)C2=O (stereo not given) | > 100 µM | > 100 µM | > 100 µM | > 100 µM | > 100 µM | > 100 µM |  | > 100 µM | > 100 µM | > 100 µM |  |  |  |  |  |  |  |  |  |
| COc1cc(OC)c2c(C)cc(=O)oc2c1 | > 100 µM | > 100 µM | > 100 µM |  |  | > 100 µM |  | > 100 µM | > 100 µM | > 100 µM |  |  |  |  |  |  |  |  |  |
| O=C(NC(Cc1ccccc1)(Cc1ccc(O)cn1)C(=O)O)c1ccccc1 (stereo not given) | > 100 µM | > 100 µM | > 100 µM | > 100 µM |  | > 100 µM | > 100 µM | > 100 µM | > 100 µM | > 100 µM |  |  |  |  |  |  |  |  |  |
| O=c1cc(-c2ccc(Oc3ccccc3)cc2)[nH]c2cc3c(cc12)OCO3 | > 100 µM | > 100 µM |  | > 100 µM |  | > 100 µM |  | > 100 µM |  | > 100 µM |  |  |  |  |  |  |  |  |  |
| Nc1nc(-[n+]2ccc(-c3ccncc3)cc2)nc(Cl)c1Cl |  | > 100 µM | > 100 µM | > 100 µM | 45.9 µM | 37.2 µM |  | 54.9 µM | > 100 µM | > 100 µM |  |  |  |  |  |  |  |  |  |
| C[C@@H](c1ccccc1)n1c(N)c(C#N)c2ccc([N+](=O)[O-])cc2c1=O |  | 28.2 µM |  | 36 µM | 51.1 µM |  | 39.3 µM | 43 µM | 42.8 µM | 13.2 µM |  |  |  |  |  |  |  |  |  |
| Nc1nc([O-])c2c(n1)[n+](C1OC(CO)C(O)C1O)cn2CCO (stereo not given) | > 100 µM | > 100 µM | > 100 µM | > 100 µM |  |  | > 100 µM |  | > 100 µM | > 100 µM |  |  |  |  |  |  |  |  |  |
| N#C[C@@H](c1ccccn1)c1ncccc1[N+](=O)[O-] | > 100 µM | > 100 µM | > 100 µM | > 100 µM | > 100 µM | > 100 µM | > 100 µM | > 100 µM |  |  |  |  |  |  |  |  |  |  |  |
| CCOC(=O)CC(C)C1(C(=O)OCC)CCCCC1=O (stereo not given) | > 100 µM | 50 µM | > 100 µM | > 100 µM |  | > 100 µM | > 100 µM |  | > 100 µM | > 100 µM |  |  |  |  |  |  |  |  |  |
| COC1=C(OC)C(=O)C(Cc2c(C)nc3sccn23)=C(C)C1=O | 30 µM | 41 µM | 34.6 µM | 61.5 µM | > 100 µM |  | 34.9 µM | 29.5 µM | 33.9 µM |  |  |  |  |  |  |  |  |  |  |

| Structure (SMILES) | TGI [1] | TGI [2] | TGI [3] | TGI [4] | TGI [5] | TGI [6] | TGI [7] | TGI [8] | TGI [9] | TGI [10] | GI50 [1] | GI50 [2] | GI50 [3] | GI50 [4] | GI50 [10] | GI50 [6] | GI50 [7] | GI50 [8] | GI50 [9] |
| --- | --- | --- | --- | --- | --- | --- | --- | --- | --- | --- | --- | --- | --- | --- | --- | --- | --- | --- | --- |
| CN=C(SC)N(C)c1nc(=[N+](C)C)ss1 | > 100 µM | > 100 µM | > 100 µM |  |  | > 100 µM | > 100 µM | > 100 µM | > 100 µM | > 100 µM |  |  |  |  |  |  |  |  |  |
| CCN(CC)CCSc1c2cc(OC)ccc2nc2ccc(OC)cc12 | > 57.5 µM | > 100 µM | 44.5 µM | > 61 µM |  | > 21.8 µM | 22.9 µM | > 25.7 µM | > 71 µM | 53.8 µM |  |  |  |  |  |  |  |  |  |
| O=C1c2ccsc2C(=O)c2sc(CO)cc21 | 0.951 µM | 0.102 µM | 2.12 µM | 2.17 µM |  | > 100 µM | 9.69 µM | 0.394 µM | 3.08 µM | 0.643 µM |  |  |  |  |  |  |  |  |  |
| CCOc1ncn(-c2ccc(NC(=S)NC3OC(CO)C(O)C(O)C3O)cc2)n1 (stereo not given) | > 100 µM | > 100 µM | > 100 µM | > 100 µM | > 100 µM | > 100 µM |  | > 100 µM | > 100 µM |  |  |  |  |  |  |  |  |  |  |
| COc1cc(Br)cc2cc(-c3cn4c(n3)sc3ccccc34)c(=O)oc12 | 58.4 µM | > 75 µM | > 75 µM | > 75 µM |  | 65.4 µM | > 75 µM | > 75 µM | > 75 µM |  |  |  |  |  |  |  |  |  |  |
| CCOC(=O)Cc1nc2cc(F)c(F)cc2[nH]c1=O | > 100 µM | > 100 µM | > 100 µM | > 100 µM |  | > 100 µM | > 100 µM | > 100 µM | > 100 µM | > 100 µM |  |  |  |  |  |  |  |  |  |
| CCc1cc(Cc2cc(CC)c(NC(=O)C(=O)CC(=O)c3sc(-c4cccnc4)nc3C)c(CC)c2)cc(CC)c1NC(=O)C(=O)CC(=O)c1sc(-c2cccnc2)nc1C | > 100 µM | > 100 µM | > 100 µM | > 100 µM | > 100 µM | > 100 µM |  | > 100 µM | > 100 µM | > 100 µM |  |  |  |  |  |  |  |  |  |
| CCOC1=NC(O)c2cccn2-c2sccc21 (stereo not given) | > 100 µM | > 100 µM | > 100 µM | > 100 µM | > 100 µM | > 100 µM | > 100 µM | > 100 µM | > 100 µM |  |  |  |  |  |  |  |  |  |  |
| N#Cc1[nH]c(=O)n(-c2ccccc2)c1N | 3.72 µM | > 10 µM | > 10 µM | > 10 µM | > 10 µM | > 10 µM |  | > 10 µM | > 10 µM | > 10 µM |  |  |  |  |  |  |  |  |  |
| O=C(c1ccco1)N(C(=S)OCCOc1ccccc1)c1ccccc1 | 36.6 µM | 45.3 µM | 41.1 µM | 58.6 µM | 76.2 µM | 55.3 µM | 48.4 µM | 39.9 µM | 46.2 µM |  |  |  |  |  |  |  |  |  |  |
| CN(C(=O)Cc1cccc(N=C=S)c1)[C@H]1CCCC[C@@H]1N1CCCC1 | > 100 µM | 31.2 µM | 36.1 µM | 36.3 µM | 26.8 µM | 29 µM | 29.5 µM | 29.5 µM | 32.1 µM |  |  |  |  |  |  |  |  |  |  |
| O=C1CC(c2cccc([N+](=O)[O-])c2)C2(C(=O)NC(=O)NC2=O)C(c2cccc([N+](=O)[O-])c2)C1 (stereo not given) | > 100 µM | > 100 µM | > 100 µM | > 100 µM |  | > 100 µM |  | > 100 µM | > 100 µM | > 100 µM |  |  |  |  |  |  |  |  |  |
| CC(=O)O[C@H]1C(=O)[C@@]2(C)C(C(OC(=O)c3ccccc3)[C@]3(O)CC(OC(=O)C(O)C(NC(=O)c4ccc(C(F)(F)F)cc4)c4ccccc4)C(C)=C1C3(C)C)[C@]1(OC(C)=O)CO[C@@H]1C[C@@H]2O (stereo not given in full) | 1.79 µM | 13.5 µM | 3.95 µM | 0.783 µM |  | 7.39 µM | > 37.5 µM | 1.06 µM | 0.202 µM | 4.96 µM |  |  |  |  |  |  |  |  |  |
| COc1cc2oc(-c3ccc(O)cc3)c(OC)c(=O)c2c(O)c1OC | > 100 µM | > 100 µM | > 100 µM | > 100 µM |  | > 100 µM | > 100 µM | > 100 µM | > 100 µM | > 100 µM | 36.1 µM | 23.3 µM | > 100 µM | 41.1 µM | 45.7 µM | 27.4 µM | 45.1 µM | 63.4 µM | 78.9 µM |
| CC(=O)Oc1ccc2cc(-c3ccccc3OC(C)=O)c(=O)oc2c1 | > 100 µM | > 100 µM | > 100 µM | > 100 µM | 56.7 µM | > 100 µM |  | > 100 µM | > 100 µM | 70.7 µM |  |  |  |  |  |  |  |  |  |
| Cn1c(O)c(C(=O)NC2CCCCC2)c(=O)n(C)c1=S | 17.8 µM | 25.9 µM | 38.9 µM | 21.9 µM |  | 12.6 µM | 26.5 µM | 14.5 µM | 27.7 µM | 30.5 µM |  |  |  |  |  |  |  |  |  |
